Test results: US9492471B2, “Methods of treating a disease or disorder associated with Bruton'S Tyrosine Kinase” (Celgene Avilomics Research, Inc., priority 2013, dated 2016)
Where two headings read alike, the source gives them in different places.

Tests used:
Experiment in all cases: HotSpot kinase profiling
Format in all cases: biochemical
PDGFRb = molecular target: T1, PDGFRb (Homo sapiens, UniProt P09619)
T1 construct: purchased Reaction Biology Corp
Summary of the method: (§1)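 Activity is measured by radiolabel transfer captured on P81 filters after a 2 h room-temperature reaction of kinase, substrate and cofactors. Values are percent inhibition against DMSO.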

HPK1/MAP4K1 = molecular target: T2, HPK1/MAP4K1 (Homo sapiens, UniProt Q92918)
T2 construct: purchased Reaction Biology Corp
Summary of the method: as §1

JAK3 = molecular target: T3, JAK3 (Homo sapiens, UniProt P52333)
T3 construct: purchased Reaction Biology Corp
T3 sequence (P52333 1-1124): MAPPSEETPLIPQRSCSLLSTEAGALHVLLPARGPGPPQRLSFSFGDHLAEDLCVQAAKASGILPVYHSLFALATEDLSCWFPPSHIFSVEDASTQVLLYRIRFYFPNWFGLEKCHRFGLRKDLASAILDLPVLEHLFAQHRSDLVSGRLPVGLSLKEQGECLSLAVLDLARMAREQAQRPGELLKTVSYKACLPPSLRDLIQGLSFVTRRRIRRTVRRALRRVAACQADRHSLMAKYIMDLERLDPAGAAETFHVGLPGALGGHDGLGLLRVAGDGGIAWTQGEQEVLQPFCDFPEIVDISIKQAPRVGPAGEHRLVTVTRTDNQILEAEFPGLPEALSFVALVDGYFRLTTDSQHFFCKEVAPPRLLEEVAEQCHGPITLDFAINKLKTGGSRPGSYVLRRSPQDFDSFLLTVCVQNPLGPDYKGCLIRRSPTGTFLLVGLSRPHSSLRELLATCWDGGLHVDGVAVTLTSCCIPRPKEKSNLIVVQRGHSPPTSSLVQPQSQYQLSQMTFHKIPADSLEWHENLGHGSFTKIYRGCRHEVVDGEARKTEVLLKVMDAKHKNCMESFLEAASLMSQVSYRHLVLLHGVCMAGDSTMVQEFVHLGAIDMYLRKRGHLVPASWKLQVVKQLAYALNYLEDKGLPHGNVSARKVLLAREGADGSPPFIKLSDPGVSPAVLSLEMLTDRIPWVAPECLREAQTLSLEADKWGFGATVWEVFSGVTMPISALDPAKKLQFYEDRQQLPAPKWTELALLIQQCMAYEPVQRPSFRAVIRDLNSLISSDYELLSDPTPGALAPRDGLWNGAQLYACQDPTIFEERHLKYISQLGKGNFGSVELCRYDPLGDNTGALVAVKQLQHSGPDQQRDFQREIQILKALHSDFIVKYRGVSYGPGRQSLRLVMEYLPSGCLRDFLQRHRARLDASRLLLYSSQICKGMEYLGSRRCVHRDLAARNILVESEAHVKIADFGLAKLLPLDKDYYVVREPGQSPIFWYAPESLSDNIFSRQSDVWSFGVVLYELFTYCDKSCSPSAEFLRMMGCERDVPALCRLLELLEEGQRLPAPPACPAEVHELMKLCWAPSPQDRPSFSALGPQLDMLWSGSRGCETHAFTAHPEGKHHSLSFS
Summary of the method: as §1

ALK3/BMPR1A = molecular target: T4, ALK3/BMPR1A (Homo sapiens, UniProt P36894)
T4 construct: purchased Reaction Biology Corp
Summary of the method: as §1

FES/FPS = molecular target: T5, FES/FPS (Homo sapiens, UniProt P07332)
T5 construct: purchased Reaction Biology Corp
Summary of the method: as §1

SGK2 = molecular target: T6, SGK2 (Homo sapiens, UniProt Q9HBY8)
T6 construct: purchased Reaction Biology Corp
T6 sequence (Q9HBY8 1-367): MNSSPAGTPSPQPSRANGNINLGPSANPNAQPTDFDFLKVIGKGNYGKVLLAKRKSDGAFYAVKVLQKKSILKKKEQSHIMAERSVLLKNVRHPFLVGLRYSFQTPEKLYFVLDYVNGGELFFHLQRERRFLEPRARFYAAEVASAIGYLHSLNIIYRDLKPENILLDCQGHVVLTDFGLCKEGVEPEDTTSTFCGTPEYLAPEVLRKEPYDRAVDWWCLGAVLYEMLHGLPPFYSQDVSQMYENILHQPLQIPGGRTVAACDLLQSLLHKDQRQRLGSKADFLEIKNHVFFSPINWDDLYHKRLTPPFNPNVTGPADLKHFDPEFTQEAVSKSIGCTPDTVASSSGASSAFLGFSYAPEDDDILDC
Summary of the method: as §1

[1] = read-out: % Enzyme Activity (relative to DMSO controls) Run 1
[2] = read-out: % Enzyme Activity (relative to DMSO controls) Run 2

T1 sequence (P09619 33-1106): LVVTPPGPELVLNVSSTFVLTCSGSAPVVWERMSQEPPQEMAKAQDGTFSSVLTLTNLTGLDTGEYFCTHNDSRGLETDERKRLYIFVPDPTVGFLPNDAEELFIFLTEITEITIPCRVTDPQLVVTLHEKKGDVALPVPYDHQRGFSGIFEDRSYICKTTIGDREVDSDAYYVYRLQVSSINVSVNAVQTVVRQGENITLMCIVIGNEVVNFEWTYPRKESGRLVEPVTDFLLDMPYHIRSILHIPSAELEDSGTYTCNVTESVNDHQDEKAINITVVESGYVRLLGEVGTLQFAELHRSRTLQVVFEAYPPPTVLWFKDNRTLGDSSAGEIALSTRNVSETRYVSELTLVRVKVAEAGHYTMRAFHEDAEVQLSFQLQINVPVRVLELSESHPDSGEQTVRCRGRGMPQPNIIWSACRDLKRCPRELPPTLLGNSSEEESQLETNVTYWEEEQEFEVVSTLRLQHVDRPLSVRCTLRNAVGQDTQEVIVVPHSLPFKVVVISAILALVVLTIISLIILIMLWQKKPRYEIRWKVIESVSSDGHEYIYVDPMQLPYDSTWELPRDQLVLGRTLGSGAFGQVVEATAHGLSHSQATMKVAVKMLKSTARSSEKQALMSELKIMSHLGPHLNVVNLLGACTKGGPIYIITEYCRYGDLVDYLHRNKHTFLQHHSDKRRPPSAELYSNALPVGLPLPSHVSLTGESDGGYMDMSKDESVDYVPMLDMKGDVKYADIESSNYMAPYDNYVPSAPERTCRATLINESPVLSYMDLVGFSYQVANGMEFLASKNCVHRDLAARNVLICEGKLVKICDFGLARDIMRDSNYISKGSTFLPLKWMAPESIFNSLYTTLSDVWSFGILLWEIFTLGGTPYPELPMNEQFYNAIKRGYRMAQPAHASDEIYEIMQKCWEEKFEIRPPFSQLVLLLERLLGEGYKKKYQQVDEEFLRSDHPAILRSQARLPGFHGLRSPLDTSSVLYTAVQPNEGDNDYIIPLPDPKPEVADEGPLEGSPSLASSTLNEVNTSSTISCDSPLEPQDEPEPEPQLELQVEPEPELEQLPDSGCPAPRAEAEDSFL
T5 sequence (P07332 whole entry): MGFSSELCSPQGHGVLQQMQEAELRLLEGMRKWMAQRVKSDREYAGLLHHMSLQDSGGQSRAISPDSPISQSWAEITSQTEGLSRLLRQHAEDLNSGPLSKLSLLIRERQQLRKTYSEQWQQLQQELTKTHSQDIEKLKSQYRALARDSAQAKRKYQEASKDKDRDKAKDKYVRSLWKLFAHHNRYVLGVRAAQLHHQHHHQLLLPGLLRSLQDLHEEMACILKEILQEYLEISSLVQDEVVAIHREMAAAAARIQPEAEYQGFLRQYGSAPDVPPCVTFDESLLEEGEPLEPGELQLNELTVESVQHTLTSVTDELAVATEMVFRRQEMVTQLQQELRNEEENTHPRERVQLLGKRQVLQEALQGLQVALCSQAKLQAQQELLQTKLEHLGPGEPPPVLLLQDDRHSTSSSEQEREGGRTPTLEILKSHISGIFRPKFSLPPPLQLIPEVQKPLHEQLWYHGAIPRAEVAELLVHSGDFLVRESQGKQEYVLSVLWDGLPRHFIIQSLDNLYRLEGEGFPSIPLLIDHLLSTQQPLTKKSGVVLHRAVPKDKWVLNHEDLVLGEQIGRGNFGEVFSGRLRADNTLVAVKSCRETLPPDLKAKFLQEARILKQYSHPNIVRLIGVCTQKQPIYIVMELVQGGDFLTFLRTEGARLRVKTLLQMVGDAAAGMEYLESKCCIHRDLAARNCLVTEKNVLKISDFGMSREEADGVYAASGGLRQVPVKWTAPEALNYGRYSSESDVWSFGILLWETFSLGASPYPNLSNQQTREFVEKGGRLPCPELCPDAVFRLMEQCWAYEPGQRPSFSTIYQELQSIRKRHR
T4 sequence (P36894 24-532): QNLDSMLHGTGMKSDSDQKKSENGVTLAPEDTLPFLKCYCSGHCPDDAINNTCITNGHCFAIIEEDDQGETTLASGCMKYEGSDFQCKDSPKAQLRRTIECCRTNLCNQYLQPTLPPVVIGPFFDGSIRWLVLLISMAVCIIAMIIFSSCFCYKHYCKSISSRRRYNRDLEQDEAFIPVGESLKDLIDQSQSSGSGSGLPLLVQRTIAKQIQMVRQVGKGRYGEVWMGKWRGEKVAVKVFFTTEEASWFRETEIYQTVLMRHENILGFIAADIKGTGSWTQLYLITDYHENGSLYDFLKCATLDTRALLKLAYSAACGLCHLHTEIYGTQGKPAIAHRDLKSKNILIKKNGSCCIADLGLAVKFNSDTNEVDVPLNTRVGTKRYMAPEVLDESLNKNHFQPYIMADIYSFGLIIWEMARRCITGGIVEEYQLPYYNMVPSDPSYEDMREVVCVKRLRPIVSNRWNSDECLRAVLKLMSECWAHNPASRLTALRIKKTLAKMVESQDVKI
T2 sequence (Q92918 whole entry): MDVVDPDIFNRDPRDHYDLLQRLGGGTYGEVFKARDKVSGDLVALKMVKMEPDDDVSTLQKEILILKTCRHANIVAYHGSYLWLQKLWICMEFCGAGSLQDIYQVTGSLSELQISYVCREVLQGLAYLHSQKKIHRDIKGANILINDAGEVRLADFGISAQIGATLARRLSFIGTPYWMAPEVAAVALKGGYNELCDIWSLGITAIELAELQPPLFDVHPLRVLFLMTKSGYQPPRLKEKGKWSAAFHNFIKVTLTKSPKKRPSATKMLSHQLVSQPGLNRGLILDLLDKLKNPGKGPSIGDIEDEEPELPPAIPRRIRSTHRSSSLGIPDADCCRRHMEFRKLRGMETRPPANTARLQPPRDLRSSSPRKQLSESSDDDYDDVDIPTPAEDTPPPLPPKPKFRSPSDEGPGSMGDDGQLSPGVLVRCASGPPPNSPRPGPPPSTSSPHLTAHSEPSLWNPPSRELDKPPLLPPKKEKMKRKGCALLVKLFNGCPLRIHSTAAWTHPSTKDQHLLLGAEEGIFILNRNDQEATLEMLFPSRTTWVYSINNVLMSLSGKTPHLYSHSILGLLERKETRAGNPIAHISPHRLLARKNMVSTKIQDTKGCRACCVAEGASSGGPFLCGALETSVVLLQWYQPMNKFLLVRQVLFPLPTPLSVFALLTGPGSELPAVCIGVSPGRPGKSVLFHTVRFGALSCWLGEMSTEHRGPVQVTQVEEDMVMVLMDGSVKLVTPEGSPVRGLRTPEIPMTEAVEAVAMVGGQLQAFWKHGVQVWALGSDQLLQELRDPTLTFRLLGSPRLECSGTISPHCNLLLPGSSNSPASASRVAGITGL

**Q.** `C=CC(=O)Nc1cccc(Nc2nc(Nc3ccc(OCCOC)c(F)c3)ncc2F)c1` [Compound 2] was tested. Which inhibition at 3 µM (PDGFRb) did it give?
**A.** Its inhibition at 3 µM is 52.4%.

**Q.** What about the remaining activity at 3 µM (PDGFRb; [1]) of the same compound?
**A.** Its remaining activity at 3 µM is 47.7%.

**Q.** And the remaining activity at 3 µM (PDGFRb; [2])?
**A.** Its remaining activity at 3 µM is 47.4%.

**Q.** What about the inhibition at 3 µM (HPK1/MAP4K1) of the same compound?
**A.** Its inhibition at 3 µM is 12.9%.

**Q.** What about the remaining activity at 3 µM (HPK1/MAP4K1; [1]) of the same compound?
**A.** Its remaining activity at 3 µM is 85.8%.

**Q.** And the remaining activity at 3 µM (HPK1/MAP4K1; [2])?
**A.** Its remaining activity at 3 µM is 88.4%.

**Q.** And the inhibition at 3 µM (JAK3)?
**A.** Its inhibition at 3 µM is 97.4%.

**Q.** And the remaining activity at 3 µM (JAK3; [1])?
**A.** The remaining activity at 3 µM was 2.53%.

**Q.** And the remaining activity at 3 µM (JAK3; [2])?
**A.** The remaining activity at 3 µM was 2.73%.

**Q.** What about the inhibition at 3 µM (ALK3/BMPR1A) of the same compound?
**A.** Its inhibition at 3 µM is -4.41%.

**Q.** What about the remaining activity at 3 µM (ALK3/BMPR1A; [1]) of the same compound?
**A.** Its remaining activity at 3 µM is 104%.

**Q.** What about the remaining activity at 3 µM (ALK3/BMPR1A; [2]) of the same compound?
**A.** The remaining activity at 3 µM was 105%.

**Q.** And the inhibition at 3 µM (FES/FPS)?
**A.** Its inhibition at 3 µM is 35%.

**Q.** What about the remaining activity at 3 µM (FES/FPS; [1]) of the same compound?
**A.** The remaining activity at 3 µM was 64%.

**Q.** What about the remaining activity at 3 µM (FES/FPS; [2]) of the same compound?
**A.** Its remaining activity at 3 µM is 66%.

**Q.** And the inhibition at 3 µM (SGK2)?
**A.** The inhibition at 3 µM was 26%.

**Q.** What about the remaining activity at 3 µM (SGK2; [1]) of the same compound?
**A.** The remaining activity at 3 µM was 71.4%.

**Q.** And the remaining activity at 3 µM (SGK2; [2])?
**A.** Its remaining activity at 3 µM is 76.6%.
